Measured values published in patent US11168073B2, “3,3-difluoroallylamines or salts thereof and pharmaceutical compositions comprising the same” (YUHAN CORPORATION, priority 2018, dated 2021).
Counter-ions that a name gives are not always drawn. Like-named read-outs stand apart in the source and are kept apart here.

Experiments:
Format in all cases: biochemical
[1] = target: T1, recombinant human VAP-1 (Homo sapiens, UniProt Q16853); test: Activity evaluation on recombinant human VAP-1 (Amplex Red/HRP-coupled hydrogen peroxide assay, benzylamine substrate); details: read-out: Inhibitory Activity (IC50, nM) human VAP-1
T1 construct: purchased R&D systems
T1 sequence (Q16853 1-763): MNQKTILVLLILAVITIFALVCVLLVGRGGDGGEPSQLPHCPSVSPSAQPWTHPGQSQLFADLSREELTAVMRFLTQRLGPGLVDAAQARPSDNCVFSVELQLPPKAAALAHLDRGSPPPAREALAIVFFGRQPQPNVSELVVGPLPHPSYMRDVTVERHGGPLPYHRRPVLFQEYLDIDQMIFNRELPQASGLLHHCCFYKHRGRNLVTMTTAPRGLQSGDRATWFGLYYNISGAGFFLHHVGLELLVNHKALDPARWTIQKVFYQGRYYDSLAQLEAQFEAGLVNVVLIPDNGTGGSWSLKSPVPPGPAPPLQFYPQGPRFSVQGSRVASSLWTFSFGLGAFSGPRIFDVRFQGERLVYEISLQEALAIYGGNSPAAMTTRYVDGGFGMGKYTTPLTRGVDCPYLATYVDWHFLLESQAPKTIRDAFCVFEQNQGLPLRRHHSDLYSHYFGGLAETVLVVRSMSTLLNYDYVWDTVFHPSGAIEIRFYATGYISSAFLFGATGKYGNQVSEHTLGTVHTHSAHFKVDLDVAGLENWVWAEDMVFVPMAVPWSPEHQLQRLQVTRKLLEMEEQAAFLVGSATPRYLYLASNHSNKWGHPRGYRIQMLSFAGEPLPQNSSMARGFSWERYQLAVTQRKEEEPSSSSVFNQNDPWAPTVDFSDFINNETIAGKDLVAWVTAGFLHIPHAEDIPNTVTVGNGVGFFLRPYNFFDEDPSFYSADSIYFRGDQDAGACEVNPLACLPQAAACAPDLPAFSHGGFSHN
How it was run: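 Recombinant human VAP-1 in 50 mM sodium phosphate pH 7.4 preincubated 30 min at 37 °C with compound (8-point 1:3 series, <1% DMSO), then 1 mM benzylamine, 200 uM Amplex Red, 1 U/mL HRP added. H2O2-derived resorufin fluorescence (ex 544/em 590) followed 1–2 h; IC50 from four-parameter fit of rate inhibition.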

[2] = target: T2, recombinant human MAO-A (monoamine oxidase-A) (Homo sapiens, UniProt P21397); test: Activity evaluation on recombinant human MAO-A (Amplex Red/HRP-coupled assay, 0.5 mM tyramine substrate); details: read-out: Inhibitory Activity (IC50, nM) MAO-A
T2 construct: purchased Sigma-Aldrich
T2 sequence (P21397 1-527): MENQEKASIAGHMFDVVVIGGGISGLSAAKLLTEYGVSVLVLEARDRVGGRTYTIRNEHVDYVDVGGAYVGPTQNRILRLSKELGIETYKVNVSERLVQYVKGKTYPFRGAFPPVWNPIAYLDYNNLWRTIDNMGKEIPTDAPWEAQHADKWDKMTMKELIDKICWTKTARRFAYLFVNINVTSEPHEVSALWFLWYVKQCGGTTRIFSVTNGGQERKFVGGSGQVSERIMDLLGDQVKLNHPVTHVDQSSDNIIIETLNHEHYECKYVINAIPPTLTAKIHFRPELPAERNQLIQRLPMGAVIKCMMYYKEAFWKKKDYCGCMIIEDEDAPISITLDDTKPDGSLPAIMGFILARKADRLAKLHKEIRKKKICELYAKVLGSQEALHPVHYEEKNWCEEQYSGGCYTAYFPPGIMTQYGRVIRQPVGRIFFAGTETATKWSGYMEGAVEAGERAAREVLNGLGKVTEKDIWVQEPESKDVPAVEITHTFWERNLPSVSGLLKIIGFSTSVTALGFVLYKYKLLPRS
How it was run: (§1)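 Enzyme activity was measured as fluorescence rate (ex 544, em 590 nm) from resorufin formed by HRP-coupled H2O2 oxidation of 200 uM Amplex Red. Compounds were first incubated 30 min at 37 °C with enzyme at pH 7.4; substrates were 0.5 mM tyramine (MAO-A), 1 mM benzylamine (MAO-B) and 1 mM putrescine (DAO).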

[3] = target: T3, recombinant human MAO-B (monoamine oxidase-B) (Homo sapiens, UniProt P27338); test: Activity evaluation on recombinant human MAO-B (Amplex Red/HRP-coupled assay, 1 mM benzylamine substrate); details: read-out: Inhibitory Activity (IC50, nM) MAO-B
T3 construct: purchased Sigma-Aldrich
T3 sequence (P27338 1-520): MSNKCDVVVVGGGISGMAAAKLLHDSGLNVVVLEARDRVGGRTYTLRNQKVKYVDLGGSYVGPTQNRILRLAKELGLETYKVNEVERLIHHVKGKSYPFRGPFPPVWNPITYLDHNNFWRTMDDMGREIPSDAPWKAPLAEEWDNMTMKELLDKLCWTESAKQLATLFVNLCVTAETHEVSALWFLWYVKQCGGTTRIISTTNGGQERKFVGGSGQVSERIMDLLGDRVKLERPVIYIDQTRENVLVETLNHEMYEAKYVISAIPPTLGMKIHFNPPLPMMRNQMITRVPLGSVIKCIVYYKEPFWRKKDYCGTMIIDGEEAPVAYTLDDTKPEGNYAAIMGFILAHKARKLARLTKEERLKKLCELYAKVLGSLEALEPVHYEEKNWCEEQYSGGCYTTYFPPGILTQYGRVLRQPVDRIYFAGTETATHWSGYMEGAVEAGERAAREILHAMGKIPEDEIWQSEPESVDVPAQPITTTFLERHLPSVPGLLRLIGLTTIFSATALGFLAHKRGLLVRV
How it was run: as §1

[4] = target: T4, recombinant human DAO (diamine oxidase) (Homo sapiens, UniProt P19801); test: Activity evaluation on recombinant human DAO (Amplex Red/HRP-coupled assay, 1 mM putrescine substrate); details: read-out: Inhibitory Activity (IC50, nM) DAO
T4 construct: purchased R&D systems
T4 sequence (P19801 20-751): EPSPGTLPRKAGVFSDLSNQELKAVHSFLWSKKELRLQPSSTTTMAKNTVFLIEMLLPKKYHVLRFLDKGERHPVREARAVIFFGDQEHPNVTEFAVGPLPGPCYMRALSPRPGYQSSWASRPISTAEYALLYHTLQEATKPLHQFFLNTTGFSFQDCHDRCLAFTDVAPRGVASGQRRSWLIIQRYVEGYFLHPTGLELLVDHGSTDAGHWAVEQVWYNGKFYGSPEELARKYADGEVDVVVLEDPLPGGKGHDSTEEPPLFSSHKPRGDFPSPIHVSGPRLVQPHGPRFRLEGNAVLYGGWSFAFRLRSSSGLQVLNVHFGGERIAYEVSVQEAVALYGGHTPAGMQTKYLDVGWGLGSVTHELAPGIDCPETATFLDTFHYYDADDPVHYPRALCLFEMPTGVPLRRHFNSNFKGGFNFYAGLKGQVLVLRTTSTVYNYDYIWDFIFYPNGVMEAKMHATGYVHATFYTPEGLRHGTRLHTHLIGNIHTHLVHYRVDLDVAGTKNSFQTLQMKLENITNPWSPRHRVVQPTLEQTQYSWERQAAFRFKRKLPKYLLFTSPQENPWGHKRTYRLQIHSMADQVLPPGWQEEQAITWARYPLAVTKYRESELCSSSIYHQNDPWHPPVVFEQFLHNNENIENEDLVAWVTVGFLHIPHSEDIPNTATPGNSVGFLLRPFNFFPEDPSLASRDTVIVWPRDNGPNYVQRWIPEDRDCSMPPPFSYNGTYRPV
How it was run: as §1

[5] = recombinant human VAP-1, 30 min preincubation at 37° C., 1 mM benzylamine
[6] = recombinant human VAP-1, benzylamine substrate

Row | Structure (SMILES) | IC50 [1, 5] | IC50 ([2]; 0.5 mM tyramine) | IC50 ([3]; 1 mM benzylamine) | IC50 ([4]; 1 mM putrescine) | IC50 [1, 6] | IC50 ([2]; 0.5 mM tyramine substrate) | IC50 ([3]; 1 mM benzylamine substrate) | IC50 ([4]; 1 mM putrescine substrate)
1 | Cc1cc(-c2ccc(CCn3cnn(CC(CN)=C(F)F)c3=O)s2)cc2c1NC(=O)CC2 [Example 178, 6-[5-[2-[1-[2-(aminomethyl)-3,3-difluoro-allyl]-5-oxo-1,2,4-triazol-4-yl]ethyl]-2-thienyl]-8-methyl-3,4-dihydro-1H-quinolin-2-one Trifluoroacetate] | 0.6 nM | > 100000 nM | > 100000 nM | 350 nM | – | – | – | –
2 | NCC(Cn1ncn(CCc2ccc(-c3ccc(C(F)(F)F)nc3)s2)c1=O)=C(F)F [Example 175, 2-[2-(aminomethyl)-3,3-difluoro-allyl]-4-[2-[5-[6-(trifluoromethyl)-3-pyridyl]-2-thienyl]ethyl]-1,2,4-triazol-3-one Trifluoroacetate] | 0.4 nM | > 100000 nM | 14000 nM | 250 nM | – | – | – | –
3 | CCn1cc(-c2cnc(-n3cnn(CC(CN)=C(F)F)c3=O)c(C)c2)cn1 [Example 75, 2-[2-(aminomethyl)-3,3-difluoro-allyl]-4-[5-(1-ethylpyrazol-4-yl)-3-methyl-2-pyridyl]-1,2,4-triazol-3-one Trifluoroacetate] | 0.7 nM | > 100000 nM | > 100000 nM | 20000 nM | – | – | – | –
4 | CN(C)c1ccc(-c2cccc(-n3cnn(CC(CN)=C(F)F)c3=O)c2)cn1 [Example 20, 2-[2-(aminomethyl)-3,3-difluoro-allyl]-4-[3-[6-(dimethylamino)-3-pyridyl]phenyl]-1,2,4-triazol-3-one Trifluoroacetate] | 2.1 nM | > 100000 nM | > 100000 nM | 350 nM | – | – | – | –
5 | NCC(Cn1ncn(-c2ccc(-c3ccc(C(F)(F)F)nc3)cc2F)c1=O)=C(F)F [Example 33, 2-[2-(aminomethyl)-3,3-difluoro-allyl]-4-[2-fluoro-4-[6-(trifluoromethyl)-3-pyridyl]phenyl]-1,2,4-triazol-3-one Trifluoroacetate] | 0.3 nM | 11000 nM | 190 nM | 17 nM | – | – | – | –
6 | CCn1cc(-c2ccc(-c3ccc(Cn4cnn(CC(CN)=C(F)F)c4=O)s3)cc2)cn1 [Example 286, 2-[2-(aminomethyl)-3,3-difluoro-allyl]-4-[[5-[4-(1-ethylpyrazol-4-yl)phenyl]-2-thienyl]methyl]-1,2,4-triazol-3-one Trifluoroacetate] | – | – | – | – | 1.4 nM | 2620 nM | 3230 nM | 2480 nM
7 | CN1Cc2cc(-c3csc(Cn4cnn(CC(CN)=C(F)F)c4=O)c3)ccc2NC1=O [Example 186, 6-[5-[[1-[2-(aminomethyl)-3,3-difluoro-allyl]-5-oxo-1,2,4-triazol-4-yl]methyl]-3-thienyl]-3-methyl-1,4-dihydroquinazolin-2-one Trifluoroacetate] | – | – | – | – | 0.5 nM | > 100000 nM | > 100000 nM | 25000 nM
8 | CN(C)c1ccc(-c2ccc(-n3cnn(CC(CN)=C(F)F)c3=O)cc2F)cn1 [Example 27, 2-[2-(aminomethyl)-3,3-difluoro-allyl]-4-[4-[6-(dimethylamino)-3-pyridyl]-3-fluoro-phenyl]-1,2,4-triazol-3-one Trifluoroacetate] | 0.4 nM | > 100000 nM | 350 nM | 380 nM | – | – | – | –
9 | CS(=O)(=O)c1ccc(-c2cnc(-n3cnn(CC(CN)=C(F)F)c3=O)cn2)cc1 [Example 89, 2-[2-(aminomethyl)-3,3-difluoro-allyl]-4-[5-(4-methylsulfonylphenyl)-pyrazin-2-yl]-1,2,4-triazol-3-one Trifluoroacetate] | 0.6 nM | > 100000 nM | 1900 nM | 2 nM | – | – | – | –
10 | NCC(Cn1ncn(Cc2ccc(OCc3ccccc3)cc2)c1=O)=C(F)F [Example 96, 2-[2-(aminomethyl)-3,3-difluoro-allyl]-4-[(4-benzyloxyphenyl)methyl]-1,2,4-triazol-3-one Trifluoroacetate] | 13 nM | > 100000 nM | 220 nM | > 100000 nM | – | – | – | –
11 | CC(=O)N1CC=C(c2ccc(Cn3cnn(CC(CN)=C(F)F)c3=O)s2)CC1 [Example 125, 2-[2-(aminomethyl)-3,3-difluoro-allyl]-4-[[5-(1-acetyl-3,6-dihydro-2H-pyridin-4-yl)-2-thienyl]methyl]-1,2,4-triazol-3-one Trifluoroacetate] | 2.5 nM | > 100000 nM | > 100000 nM | > 100000 nM | – | – | – | –
12 | NCC(Cn1ncn(Cc2ccc(-c3cnn(C(F)F)c3)s2)c1=O)=C(F)F [Example 183, 2-[2-(aminomethyl)-3,3-difluoro-allyl]-4-[[5-[1-(difluoromethyl)pyrazol-4-yl]-2-thienyl]methyl]-1,2,4-triazol-3-one Trifluoroacetate] | – | – | – | – | 1.4 nM | > 100000 nM | 2100 nM | > 100000 nM
13 | NCC(Cn1ncn(-c2ccc(-c3ccc4c(c3)OCO4)cc2F)c1=O)=C(F)F [Example 35, 2-[2-(aminomethyl)-3,3-difluoro-allyl]-4-[4-(1,3-benzodioxol-5-yl)-2-fluoro-phenyl]-1,2,4-triazol-3-one Trifluoroacetate] | 0.3 nM | > 100000 nM | 33 nM | 540 nM | – | – | – | –
